From PubChem BioAssay (NCI) come the findings set out here.

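Each compound was tested at five concentrations against cells in 96-well plates for 48 hours. TGI is the concentration that stops growth completely.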 Where a SMILES comes first, the peptide text is derived from it. [ ]: non-standard residue; d: D form. Phe(4-Cl) = N[CH](Cc1ccc(Cl)cc1)C(=O)O

Test systems include MALME-3M melanoma; KM12 colon; HOP-92 NSCLC; COLO 205 colon; SW-620 colon; MOLT-4 leukemia; HCT-15 colon; EKVX NSCLC; UACC-62 melanoma.
Experiment in all cases: NCI-60 cell line screen, 48 h

Take `Cc1ccc(S(=O)(=O)n2c(-c3ccccc3)c(-c3ccccc3)c3ccccc32)cc1`: the TGI in the assay with MALME-3M melanoma, in the assay with KM12 colon, in the assay with HOP-92 NSCLC, in the assay on COLO 205 colon, in the assay on SW-620 colon and in the assay on MOLT-4 leukemia was > 100 µM each time. Also, the TGI in the assay with HCT-15 colon, in the assay on EKVX NSCLC and with UACC-62 melanoma was > 100 µM in each case.

As to `CC1=C2C(=O)O[C@@H](c3ccoc3)[C@]2(C)CCC1`, the TGI with MALME-3M melanoma, in the assay on KM12 colon, with HOP-92 NSCLC, with COLO 205 colon, with SW-620 colon and with MOLT-4 leukemia was > 100 µM throughout. Moreover, the TGI with HCT-15 colon, in the assay on EKVX NSCLC and in the assay with UACC-62 melanoma was > 100 µM in each case.

Regarding `CC(C)(C)OC(=O)Cc1ccc2c(ccn2Cc2ccccc2)c1`, the TGI in the assay on MALME-3M melanoma, in the assay with KM12 colon, with HOP-92 NSCLC, with COLO 205 colon, in the assay on SW-620 colon and with MOLT-4 leukemia was > 100 µM each time. The TGI with HCT-15 colon, with EKVX NSCLC and with UACC-62 melanoma was > 100 µM throughout.

As to `CC(O)C(NC(=O)C(Cc1ccccc1)NC(=O)C(NC(=O)C(CCCCN)NC(=O)C(Cc1c[nH]c2ccccc12)NC(=O)C(Cc1ccc(O)cc1)NC(=O)C(Cc1ccc(Cl)cc1)NC(=O)C(N)Cc1ccccc1)C(C)O)C(N)=O` (stereo not drawn) (H-F[Phe(4-Cl)]YWKTFT-NH2; configuration not given here), the TGI in the assay on KM12 colon was found to be 33.5 µM; in the assay with COLO 205 colon, 51.7 µM; with MOLT-4 leukemia it was 62.2 µM; in the assay on HCT-15 colon, 41.5 µM; in the assay with EKVX NSCLC, 32.2 µM; in the assay with UACC-62 melanoma, 39.8 µM.

Take `NC1=NN(c2ccccc2)C(=O)C1C(=O)CCC(=O)Nc1cccc(C(F)(F)F)c1` (stereo not drawn): the TGI with MALME-3M melanoma, in the assay on KM12 colon, in the assay on HOP-92 NSCLC, with COLO 205 colon, in the assay on SW-620 colon and with MOLT-4 leukemia was > 100 µM throughout. In addition, the TGI with HCT-15 colon, with EKVX NSCLC and in the assay on UACC-62 melanoma was > 100 µM each time.

As for `CCOC(=O)CN=c1nc(SC)sc2c(C(=O)OCC)nc(Sc3ccccc3)n12`, the TGI in the assay with MALME-3M melanoma, with KM12 colon, in the assay on HOP-92 NSCLC, in the assay with COLO 205 colon, in the assay with SW-620 colon and in the assay on EKVX NSCLC was > 100 µM each time. Moreover, the TGI with UACC-62 melanoma was > 100 µM.

Consider `CCOC1=NC(=O)CC(c2ccccc2)S1` (stereo not drawn), for which the TGI in the assay with MALME-3M melanoma, with KM12 colon, with HOP-92 NSCLC, in the assay with COLO 205 colon, with SW-620 colon and in the assay on MOLT-4 leukemia was > 100 µM throughout. For the same compound, the TGI in the assay with HCT-15 colon, in the assay on EKVX NSCLC and with UACC-62 melanoma was > 100 µM each time.

With `Cc1cccc(NC(=O)C(=O)Cc2nc3ccccc3[nH]c2=O)c1C`, the TGI in the assay on MALME-3M melanoma, with KM12 colon, in the assay with HOP-92 NSCLC, with COLO 205 colon, in the assay with SW-620 colon and in the assay on HCT-15 colon was > 100 µM in each case. In addition, the TGI with EKVX NSCLC and with UACC-62 melanoma was > 100 µM throughout.

`O=C(O)CN(c1ccccc1)S(=O)(=O)c1ccccc1[N+](=O)[O-]`: the TGI with MALME-3M melanoma, in the assay on KM12 colon, with HOP-92 NSCLC, with COLO 205 colon, with SW-620 colon and in the assay on MOLT-4 leukemia was > 100 µM in each case. For the same compound, the TGI with HCT-15 colon, in the assay on EKVX NSCLC and in the assay with UACC-62 melanoma was > 100 µM each time.

On to `Cn1cc(C(=O)c2ccccc2)ccc1=O`, for which the TGI in the assay with MALME-3M melanoma, with KM12 colon, in the assay on HOP-92 NSCLC, in the assay with COLO 205 colon, in the assay on SW-620 colon and in the assay on MOLT-4 leukemia was > 100 µM each time. Moreover, the TGI with HCT-15 colon, in the assay with EKVX NSCLC and in the assay with UACC-62 melanoma was > 100 µM in each case.

`O=c1cccccc1NCCCNc1cccccc1=O`: the TGI in the assay with MALME-3M melanoma was 39.2 µM; in the assay with KM12 colon, > 100 µM; with HOP-92 NSCLC it was > 100 µM; with COLO 205 colon, > 100 µM; in the assay on SW-620 colon, > 100 µM; in the assay on MOLT-4 leukemia it was > 100 µM. Also, the TGI in the assay on HCT-15 colon, in the assay with EKVX NSCLC and in the assay with UACC-62 melanoma was > 100 µM throughout.

On to `CCOC(=O)NC(=O)c1cn(CCOCCOC(=O)NCCCCCCNC(=O)OCCOCCn2cc(C(=O)NC(=O)OCC)c(=O)[nH]c2=O)c(=O)[nH]c1=O`, for which the TGI in the assay on MALME-3M melanoma, in the assay with KM12 colon, in the assay on HOP-92 NSCLC, in the assay with COLO 205 colon, in the assay on SW-620 colon and in the assay with HCT-15 colon was > 100 µM in each case. Moreover, the TGI in the assay with EKVX NSCLC and with UACC-62 melanoma was > 100 µM throughout.

For the compound `CCCCCCCCCCCCCC1CCC(CC)N1` (stereo not drawn), the TGI stood at 33.8 µM in the assay on MALME-3M melanoma; 32.4 µM in the assay on KM12 colon; 31.3 µM in the assay with HOP-92 NSCLC; 28.9 µM in the assay with COLO 205 colon; 29.6 µM with SW-620 colon; 30.6 µM in the assay with MOLT-4 leukemia. The results for the TGI in the assay with HCT-15 colon, in the assay on EKVX NSCLC and in the assay with UACC-62 melanoma were 16.5 µM, 31.4 µM and 17.1 µM, respectively.

As to `Cc1cc(C)nc(NS(=O)(=O)c2ccc(Nc3c4ccccc4nc4c(C(=O)Nc5ccc(S(=O)(=O)Nc6cc(C)on6)cc5)cccc34)cc2)n1`, the TGI with MALME-3M melanoma is 49 µM; with KM12 colon, 35.7 µM; in the assay with HOP-92 NSCLC it was 39.5 µM; with COLO 205 colon it was 34.1 µM; in the assay with SW-620 colon it was 51.4 µM; with MOLT-4 leukemia, 64 µM. For the same compound, the TGI in the assay on HCT-15 colon was > 100 µM; with EKVX NSCLC, 66.7 µM; in the assay on UACC-62 melanoma it was 34 µM.

Take `Cc1ccccc1N(CCC#N)C1=NN(C(=O)CC(=O)Nc2ccccc2)C(c2ccccc2)C1` (stereo not drawn): the TGI in the assay on MALME-3M melanoma, in the assay with KM12 colon, with HOP-92 NSCLC, in the assay on COLO 205 colon, with SW-620 colon and in the assay with MOLT-4 leukemia was > 100 µM throughout. The TGI in the assay on HCT-15 colon, with EKVX NSCLC and with UACC-62 melanoma was > 100 µM throughout.
